Laboratory results as given in paper PMC4533973, “Synthesis and Evaluation of Chloramphenicol Homodimers: Molecular Target, Antimicrobial Activity, and Toxicity against Human Cells” (PLoS ONE, 2015).
Marks after values point to notes of the source that are not given here.

Legend:
[1] = tested on: 70S ribosomes from E. coli (central loop of Domain V of 23S rRNA); assay: Time-resolved footprinting of RI and R*I complexes; type: binding; details: ratio to control lane R
From the text: The behavior of compound 5 was compared to that of compound 4, which is bearing a flexible linker of the same length. The footprinting analysis exploits the slow-binding character of the dimers and has been successfully applied in studying various slow-binding inhibitors of the PTase. To overcome potential drawbacks resulting from protections caused by natural PTase substrates, naked 70S ribosomes were used instead of complex C. To footprint the RI complex, compounds 4 or 5 used in excess, and ribosomes were incubated at 25°C for 2 s, and then treated with chemical probes for 3 min to modify accessible nucleosides in 23S rRNA. Because the first step of binding, R + I ⇄ RI, equilibrates rapidly while the formation of R*I occurs slowly, the main product formed during such a short time interval was complex RI (>93%). To footprint the R*I complex, each dimer and ribosomes were incubated for 10 min, a time interval that is over than ten half-lives required for the attainment of the steady state. Because the isomerization constant, k on/k off, is at least 2.2 (see Table 1), most of the ribosomes added in the reaction mixture (>70%) were in the form of R*I complex at the end of this time interval.
Chemical modification of complexes RI and R*I with DMS, kethoxal, or CMCT, primer extension analysis, and gel electrophoresis of the primer extension products were performed as previously described. […] Quantitative scanning of the gels, and normalization of the band intensities were made as previously shown. Values indicated in Table 2 denote the ratio between the normalized intensity of a band of interest and the normalized intensity of the corresponding band in the control lane (ribosomes non-treated with CAM or CAM dimers).

CAM acetyltransferase = target: T1, CAM acetyltransferase (Escherichia coli, UniProt P62577); assay: CAM acetyltransferase assay (compounds as acetyl-acceptor substrates); type: biochemical, E. coli
T1 construct: purchased Sigma-Aldrich; host or cells: E. coli
Protocol: Fig 6 Kinetic analysis of the CAM acetyltransferase reaction using CAM or compounds 4 and 5 as substrates. […] The product of the enzymatic reaction, coenzyme A, reacted with 5,5’-dithio-bis(2-nitrobenzoic acid) to yield 5-thio-2-nitrobenzoate which absorbs at 412 nm, with a micromolar extinction coefficient equal to 0.0136. The Vmax and Km values were determined by fitting the substrate concentrations [S] and the obtained ΔA412nm/min (Vo) values into equation V 0 = V max[S]/(K m + [S]). The obtained Vmax values were divided by 0.0136 to convert their units in μM·min^-1 (http://www.sigmaaldrich.com/technical-documents/protocols/biology/enzymatic-assay-of-chloramphenicol-acetyltransferase.html). The ratio Vmax/Km for each curve is given in parenthesis. TEXT PRINTED IN THE PICTURE: no label printed: (0.178 min^-1) | no label printed: (0.139 min^-1) | no label printed: (0.008 min^-1) DOUBTS OF THE COPYIST ABOUT THIS PICTURE: The picture prints no substance label and no measure name for the three values. They stand beside the curves marked with triangles (0.178 min^-1), circles (0.139 min^-1) and squares (0.008 min^-1). […]

[2] = tested on: human peripheral blood cells; assay: Toxicity assays in human peripheral blood cells; type: cell-based
Protocol: Fig 7 Toxicity assays in human peripheral blood cells. Peripheral blood was collected in EDTA-coated tubes from 5 healthy volunteers (age range: 25–30 years). Concentration was adjusted to 1.8×10^9 cells/L using RPMI-1640 medium containing 1% penicillin/streptomycin. Cells were cultured in triplicate in the presence or the absence of 30 or 60 μM CAM or compound 5, under a humidified 5% CO2 atmosphere for 5 days, at 37°C. Cultures were counted daily by a CELL-DYN 3700 Hematology Analyzer and values were expressed as a percentage of cells measured in controls.
Peripheral blood was collected in EDTA-coated tubes from 5 healthy volunteers (age range: 25–30 years). Cell concentration was adjusted to 5×10^8 cells/l using RPMI-1640 medium (GIBCO BRL) containing 1% penicillin/streptomycin. Cells were cultured in triplicate under a humidified 5% CO2 atmosphere for 5 days, at 37°C, in the absence (control cultures) or the presence of CAM or CAM dimers. Counting of cells was performed daily in a CELL-DYN 3700 Hematology Analyzer (Abbott, USA) and values were expressed as a percentage of cells measured in control cultures.

Jurkat cells = assay: Toxicity assays in Jurkat cells (cell counting, necrosis and apoptosis by flow cytometry); type: cell-based, Human
Protocol: Fig 8 Toxicity assays in Jurkat cells. Jurkat cells were adjusted to 1×10^9 cells/L in RPMI-1640 medium containing 1% Penicillin/Streptomycin and 10% fetal bovine serum. The cells were grown in triplicate in the presence or absence of compound 5 at the indicated concentrations for 4 days at 37°C, under a humidified 5% CO2 atmosphere. CAM was used as a reference compound. For cell necrosis and apoptosis assays, samples (10^6 cells) were collected daily and determined by flow cytometry. Apoptotic and necrotic cells were expressed as a percentage of total cells.
Human leukemic cell lines, HS-Sultan (Burkitt’s lymphoma), Jurkat (T-cell acute lymphoblastic leukemia), and U937 (histiocytic lymphoma), were adjusted to 1×10^9 cells/l in RPMI-1640 medium supplemented with 10% fetal bovine serum and 1% penicillin/streptomycin. The cells were grown in triplicate in the absence (control cultures) or presence of CAM or CAM dimers for 4 days at 37°C, under a humidified 5% CO2 atmosphere. The medium was changed daily; CAM or CAM dimer addition was repeated after medium change. Aliquots were collected daily and counted in a CELL-DYN 3700 Hematology Analyzer. For cell necrosis and apoptosis assays, samples (10^6 cells) were collected and determined using the Annexin V-PE Apoptosis Detection Kit I (BD Pharmingen) for flow cytometry, according to the manufacturers’ instructions. Flow cytometry data were analyzed using the FlowJo flow cytometry analysis software. Necrotic and apoptotic cells were expressed as a percentage of total cells.

[3] = R*I complex (10 min incubation)

T1 sequence (P62577 whole entry, looked up): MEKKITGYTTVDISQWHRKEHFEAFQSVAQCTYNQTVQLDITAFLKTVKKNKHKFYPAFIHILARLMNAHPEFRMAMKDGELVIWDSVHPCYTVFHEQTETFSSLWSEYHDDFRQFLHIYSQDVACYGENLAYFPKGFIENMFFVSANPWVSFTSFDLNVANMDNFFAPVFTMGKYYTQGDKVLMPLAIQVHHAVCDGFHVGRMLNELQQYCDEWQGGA

| SMILES | Relative reactivity of A2058 [1, 3] | Relative reactivity of A2059 ([1]; R*I complex) | Relative reactivity of A2062 ([1]; R*I complex) | Relative reactivity of A2451 ([1]; R*I complex) | Relative reactivity of G2505 ([1]; R*I complex) | Relative reactivity of U2506 ([1]; R*I complex) | Relative reactivity of U2609 ([1]; R*I complex) | Relative reactivity of A2058 ([1]; RI complex (2 s incubation)) | Relative reactivity of A2059 ([1]; RI complex) | Relative reactivity of A2062 ([1]; RI complex) | Relative reactivity of A2451 ([1]; RI complex) | Relative reactivity of G2505 ([1]; RI complex) | Relative reactivity of U2506 ([1]; RI complex) | Relative reactivity of U2609 ([1]; RI complex) | behaviour as substrate of CAM acetyltransferase (CAM acetyltransferase) | other results |
| --- | --- | --- | --- | --- | --- | --- | --- | --- | --- | --- | --- | --- | --- | --- | --- | --- |
| O=C(CCCCC(=O)N[C@H](CO)[C@H](O)c1ccc([N+](=O)[O-])cc1)N[C@H](CO)[C@H](O)c1ccc([N+](=O)[O-])cc1 [Compound 4, N^1,N^6-Bis((1R,2R)-1,3-dihydroxy-1-(4-nitrophenyl)propan-2-yl)adipamide] | 0.90 ± 0.09 | 0.70 ± 0.07 ^b ^, ^c | 0.67 ± 0.05 ^b ^, ^c | 0.77 ± 0.05 ^b | 0.44 ± 0.03 ^b | 0.70 ± 0.04 ^b | 1.00 ± 0.07 | 0.99 ± 0.07 | 0.94 ± 0.06 | 0.88 ± 0.08 ^b | 0.67 ± 0.04 ^b | 0.43 ± 0.03 ^b | 0.70 ± 0.05 ^b | 1.00 ± 0.10 | behaves like CAM as substrate of CAM acetyltransferase | – |
| O=C(N[C@H](CO)[C@H](O)c1ccc([N+](=O)[O-])cc1)c1ccc(C(=O)N[C@H](CO)[C@H](O)c2ccc([N+](=O)[O-])cc2)cc1 [Compound 5, N^1,N^4-Bis ((1R,2R)-1,3-dihydroxy-1-(4-nitrophenyl)propan-2-yl)-terephthalamide] | 0.32 ± 0.04 ^b ^, ^c | 0.33 ± 0.08 ^b ^, ^c | 0.40 ± 0.09 ^b ^, ^c | 0.41 ± 0.05 ^c | 0.35 ± 0.06 ^c | 0.33 ± 0.05 ^b ^, ^c | 0.79 ± 0.08 ^b ^, ^c | 0.93 ± 0.06 | 0.96 ± 0.08 | 0.80 ± 0.06 ^b | 0.40 ± 0.03 ^b | 0.38 ± 0.05 ^b | 0.47 ± 0.05 ^b | 1.00 ± 0.08 | almost inactive | toxicity against other types of leukocytes [2]: negligible; time of peak toxicity on neutrophils ([2]; 120 h exposure of blood cells): 48 h; toxicity on neutrophils ([2]; 120 h exposure of blood cells, 30 or 60 μM): mild and transient toxicity; apoptosis, expressed as a percentage of total cells (Jurkat cells; 60 μM, flow cytometry): 43%; necrosis (Jurkat cells; 60 μM, flow cytometry): failed to induce necrosis; growth of Jurkat cells (Jurkat cells; daily cell counting, all tested concentrations): the rate of growth was reduced proportionally to the concentration |
